For 24 compounds, IC50 results are on record in patent US20250145585A1, “HETEROCYCLIC INHIBITORS OF IGF-1R FOR TREATMENT OF DISEASE” (HORIZON THERAPEUTICS IRELAND DAC, priority 2023, published 2025).

Assay [1] deals with T1, IGF-1R (Homo sapiens, UniProt P08069).
T1 construct: expressed in transfected cells
Nature of the assay: Example B-1: IGF-1R Assay (PC3 cells stimulated with IGF1, AlphaLISA on cell lysates). The class given is cell-based. Conditions: compound two hours, IGF1 200 ng/mL for 30 min, read-out: IC50, Biological Activity against IGF-1R (Table B1). In outline:
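PC3 cells serum-starved 2 h, treated 2 h with 3-fold serially diluted compound, then stimulated 30 min with IGF1 (200 ng/mL final). Lysates analysed by AlphaLISA; % inhibition calculated relative to vehicle and EC80 controls, IC50 derived.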
(Bead proximity is the source of the signal in Alpha formats.)

Assay [2] deals with T1, IGF-1R. Nature of the assay: Example B-2: IGF-1R Assay (PathHunter cell lines, EC80 agonist challenge, chemiluminescent detection). Format: cell-based. The settings on record: PathHunter cells, compound 60 minutes at 37° C., EC80 agonist 3 hours; read-out: IC50, Biological Activity against IGF-1R (Table B2). In outline: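 PathHunter cells were pre-incubated with compound for 60 min at 37° C (1% vehicle), then challenged with EC80 agonist for 3 h at room temperature. Chemiluminescent detection after 1 h gave % inhibition relative to EC80 and vehicle controls, from which IC50 was derived.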

Broadly, the pIC50 is −log10 of the IC50, conventionally taken in molar units.

Structures are written as SMILES. pIC50: −log10 of the molar value.

T1 sequence (P08069 31-1367): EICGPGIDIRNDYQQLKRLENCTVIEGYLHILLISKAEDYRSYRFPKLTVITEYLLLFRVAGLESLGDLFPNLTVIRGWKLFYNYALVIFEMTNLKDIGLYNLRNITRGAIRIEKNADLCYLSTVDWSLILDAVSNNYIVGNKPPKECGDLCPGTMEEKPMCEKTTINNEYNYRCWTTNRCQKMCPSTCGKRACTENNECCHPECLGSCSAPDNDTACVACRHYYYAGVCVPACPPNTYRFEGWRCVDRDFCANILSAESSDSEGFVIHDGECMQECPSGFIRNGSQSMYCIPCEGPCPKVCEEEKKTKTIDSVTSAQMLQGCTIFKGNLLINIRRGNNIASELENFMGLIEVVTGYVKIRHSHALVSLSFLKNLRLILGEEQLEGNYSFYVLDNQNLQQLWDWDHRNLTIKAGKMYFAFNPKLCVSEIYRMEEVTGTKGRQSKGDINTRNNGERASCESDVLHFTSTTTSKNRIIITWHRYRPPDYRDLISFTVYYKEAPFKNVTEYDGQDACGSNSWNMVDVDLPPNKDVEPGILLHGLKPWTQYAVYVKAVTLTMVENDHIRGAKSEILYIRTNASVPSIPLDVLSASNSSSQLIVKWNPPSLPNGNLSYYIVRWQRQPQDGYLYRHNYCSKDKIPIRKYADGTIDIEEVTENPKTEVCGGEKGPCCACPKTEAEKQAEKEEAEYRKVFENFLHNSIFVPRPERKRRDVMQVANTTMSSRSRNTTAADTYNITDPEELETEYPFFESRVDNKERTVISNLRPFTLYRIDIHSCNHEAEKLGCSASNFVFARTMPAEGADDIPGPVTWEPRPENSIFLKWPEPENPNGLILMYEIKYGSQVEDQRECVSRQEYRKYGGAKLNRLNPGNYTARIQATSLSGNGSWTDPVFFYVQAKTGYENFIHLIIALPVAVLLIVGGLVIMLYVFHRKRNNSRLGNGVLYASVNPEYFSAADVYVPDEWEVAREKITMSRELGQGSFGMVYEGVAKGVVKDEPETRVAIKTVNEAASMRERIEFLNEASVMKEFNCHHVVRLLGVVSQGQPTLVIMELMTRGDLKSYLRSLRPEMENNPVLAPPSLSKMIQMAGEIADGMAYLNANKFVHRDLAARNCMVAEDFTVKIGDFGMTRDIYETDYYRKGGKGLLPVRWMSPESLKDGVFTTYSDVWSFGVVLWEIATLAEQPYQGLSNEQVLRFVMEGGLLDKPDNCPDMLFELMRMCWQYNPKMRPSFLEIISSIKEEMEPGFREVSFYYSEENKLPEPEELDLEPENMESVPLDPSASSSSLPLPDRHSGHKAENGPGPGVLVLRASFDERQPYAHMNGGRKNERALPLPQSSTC

For the compound `CC1(C)CNc2nccc(CN3C(=O)N(c4ccc(SC(F)(F)F)cc4)C(=O)C3(C)C)c21` [Compound 20, 1-((3,3-dimethyl-2,3-dihydro-1H-pyrrolo[2,3-b]pyridin-4-yl)methyl)-5,5-dimethyl-3-(4-((trifluoromethyl)thio)phenyl)imidazolidine-2,4-dione], the pIC50 at IGF-1R [1] and at IGF-1R [2] was ≥ 6.30 in each case.

`CC1(C)C(=O)Nc2nccc(CN3C(=O)N(c4ccc(SC(F)(F)F)cc4)C(=O)C3(C)C)c21` [Compound 19, 1-((3,3-dimethyl-2-oxo-2,3-dihydro-1H-pyrrolo[2,3-b]pyridin-4-yl)methyl)-5,5-dimethyl-3-(4-((trifluoromethyl)thio)phenyl)imidazolidine-2,4-dione]: the pIC50 on IGF-1R [1] and on IGF-1R [2] was ≥ 6.30 throughout.

As to `CC(C)Nc1cc(CN2C(=O)N(c3ccc4c(c3)S(=O)(=O)CC4(C)C)C(=O)C2(C)C)ccn1` [Compound 190, 3-(3,3-dimethyl-1,1-dioxido-2,3-dihydrobenzo[b]thiophen-6-yl)-1-((2-(isopropylamino)pyridin-4-yl)methyl)-5,5-dimethylimidazolidine-2,4-dione], the pIC50 on IGF-1R [1] and on IGF-1R [2] was 5.00 to 5.70 in each case.

In the case of `CC(C)(C#N)Nc1cc(CN2C(=O)N(c3ccc(C4(C(F)(F)F)CC4)cc3)C(=O)C2(C)C)ccn1` [Compound 109, 2-((4-((5,5-dimethyl-2,4-dioxo-3-(4-(1-(trifluoromethyl)cyclopropyl)phenyl)imidazolidin-1-yl)methyl)pyridin-2-yl)amino)-2-methylpropanenitrile], the pIC50 on IGF-1R [1] and at IGF-1R [2] was ≥ 6.30 in each case.

As to `CC1(C)C(=O)N(c2ccc(SC(F)(F)F)cc2)C(=O)N1Cc1ccnc2c1CC(=O)N2` [Compound 12, 5,5-dimethyl-1-((2-oxo-2,3-dihydro-1H-pyrrolo[2,3-b]pyridin-4-yl)methyl)-3-(4-((trifluoromethyl)thio)phenyl)imidazolidine-2,4-dione], the pIC50 on IGF-1R [1] and on IGF-1R [2] was ≥ 6.30 in each case.

`CC1(Nc2cc(CN3C(=O)N(c4ccc(C5(C(F)(F)F)CC5)cc4)C(=O)C3(C)C)ccn2)CC1` [Compound 138, 5,5-dimethyl-1-((2-((1-methylcyclopropyl)amino)pyridin-4-yl)methyl)-3-(4-(1-(trifluoromethyl)cyclopropyl)phenyl) imidazolidine-2,4-dione]: the negative logarithm of the IC50 (pIC50) at IGF-1R [1] and on IGF-1R [2] was ≥ 6.30 throughout.

In the case of `CC(C)Nc1cc(CN2C(=O)N(c3ccc4c(c3)NC(=O)C43CC3)C(=O)C2(C)C)ccn1` [Compound 187, 1-((2-(isopropylamino)pyridin-4-yl)methyl)-5,5-dimethyl-3-(2′-oxospiro[cyclopropane-1,3′-indolin]-6′-yl)imidazolidine-2,4-dione], the pIC50 on IGF-1R [1] and on IGF-1R [2] was 5.00 to 5.70 in each case.

As for `CC1(C)C(=O)N(c2ccc(SC(F)(F)F)cc2)C(=O)N1Cc1ccnc(N)c1C#N` [Compound 391, 2-amino-4-((5,5-dimethyl-2,4-dioxo-3-(4-((trifluoromethyl)thio)phenyl)imidazolidin-1-yl)methyl)nicotinonitrile], the pIC50 at IGF-1R [1] and on IGF-1R [2] was ≥ 6.30 in each case.

Turning to `CN1C(=O)C2(CC2)c2ccc(N3C(=O)N(Cc4ccnc(N)c4)C(C)(C)C3=O)cc21` [Compound 402, 1-((2-aminopyridin-4-yl)methyl)-5,5-dimethyl-3-(1′-methyl-2′-oxospiro[cyclopropane-1,3′-indolin]-6′-yl)imidazolidine-2,4-dione], the pIC50 at IGF-1R [1] and at IGF-1R [2] was 5.00 to 5.70 each time.

Turning to `CC(C)Nc1cc(CN2C(=O)N(c3ccc4c(c3)N(C)C(=O)C43CC3)C(=O)C2(C)C)ccn1` [Compound 185, 1-((2-(isopropylamino)pyridin-4-yl)methyl)-5,5-dimethyl-3-(1′-methyl-2′-oxospiro[cyclopropane-1,3′-indolin]-6′-yl)imidazolidine-2,4-dione], the negative logarithm of the IC50 (pIC50) on IGF-1R [1] and on IGF-1R [2] was 5.00 to 5.70 throughout.

In the case of `CC(C)Nc1cc(CN2C(=O)N(c3ccc4c(C(F)(F)F)nn(C)c4c3)C(=O)C2(C)C)ccn1` [Compound 256, 1-((2-(isopropylamino)pyridin-4-yl)methyl)-5,5-dimethyl-3-(1-methyl-3-(trifluoromethyl)-1H-indazol-6-yl)imidazolidine-2,4-dione], the pIC50 is 5.70 to 6.30 on IGF-1R [1] and 5.00 to 5.70 at IGF-1R [2].

For `CC1(C)C(=O)N(c2ccc(S(=O)(=O)C(F)(F)F)cc2)C(=O)N1Cc1ccnc2c1CC(=O)N2` [Compound 23, 5,5-dimethyl-1-((2-oxo-2,3-dihydro-1H-pyrrolo[2,3-b]pyridin-4-yl)methyl)-3-(4-((trifluoromethyl)sulfonyl)phenyl)imidazolidine-2,4-dione], the pIC50 on IGF-1R [1] and on IGF-1R [2] was ≥ 6.30 each time.

For `CC1(C)C(=O)N(c2ccc(C3(C(F)(F)F)CC3)cc2)C(=O)N1Cc1ccnc(N[C@H]2CCCOC2)c1` [Compound 121, (S)-5,5-dimethyl-1-((2-((tetrahydro-2H-pyran-3-yl)amino)pyridin-4-yl)methyl)-3-(4-(1-(trifluoromethyl)cyclopropyl)phenyl) imidazolidine-2,4-dione], the pIC50 on IGF-1R [1] and at IGF-1R [2] was ≥ 6.30 each time.

As to `CC1(C)C(=O)N(c2ccc(C3(C(F)(F)F)CC3)cc2)C(=O)N1Cc1ccnc(N[C@H]2CCOC2)c1` [Compound 119, (S)-5,5-dimethyl-1-((2-((tetrahydrofuran-3-yl)amino)pyridin-4-yl)methyl)-3-(4-(1-(trifluoromethyl)cyclopropyl)phenyl) imidazolidine-2,4-dione], the pIC50 at IGF-1R [1] and at IGF-1R [2] was ≥ 6.30 throughout.

As for `CC(c1ccnc(NC2CCOCC2)c1)N1C(=O)N(c2ccc(C3(C(F)(F)F)CC3)cc2)C(=O)C1(C)C` (stereo not drawn) [Compound 134, 5,5-dimethyl-1-(1-(2-((tetrahydro-2H-pyran-4-yl)amino)pyridin-4-yl)ethyl)-3-(4-(1-(trifluoromethyl)cyclopropyl)phenyl) imidazolidine-2,4-dione], the negative logarithm of the IC50 (pIC50) was ≥ 6.30 at IGF-1R [1] and 5.70 to 6.30 at IGF-1R [2].

Consider `CC1(C)C(=O)N(c2ccc(C3(C(F)(F)F)CC3)cc2)C(=O)N1Cc1ccnc2c1CCCN2` [Compound 18, 5,5-dimethyl-1-((5,6,7,8-tetrahydro-1,8-naphthyridin-4-yl)methyl)-3-(4-(1-(trifluoromethyl)cyclopropyl)phenyl) imidazolidine-2,4-dione], for which the pIC50 on IGF-1R [1] and on IGF-1R [2] was ≥ 6.30 throughout.

Turning to `CC1(C)C(=O)N(c2ccc(C3(C(F)(F)F)CC3)cc2)C(=O)N1Cc1ccnc(NCCS(C)(=O)=O)c1` [Compound 137, 5,5-dimethyl-1-((2-((2-(methylsulfonyl)ethyl)amino)pyridin-4-yl)methyl)-3-(4-(1-(trifluoromethyl)cyclopropyl)phenyl) imidazolidine-2,4-dione], the pIC50 on IGF-1R [1] and at IGF-1R [2] was ≥ 6.30 throughout.

`CC1CC(Nc2cc(CN3C(=O)N(c4ccc(C5(C(F)(F)F)CC5)cc4)C(=O)C3(C)C)ccn2)CCO1` (stereo not drawn) [Compound 127, 5,5-dimethyl-1-((2-((2-methyltetrahydro-2H-pyran-4-yl)amino)pyridin-4-yl)methyl)-3-(4-(1-(trifluoromethyl)cyclopropyl)phenyl) imidazolidine-2,4-dione]: the pIC50 at IGF-1R [1] and at IGF-1R [2] was ≥ 6.30 throughout.

As for `CC1(C)Cc2c(CN3C(=O)N(c4ccc(SC(F)(F)F)cc4)C(=O)C3(C)C)ccnc2N1` [Compound 21, 1-((2,2-dimethyl-2,3-dihydro-1H-pyrrolo[2,3-b]pyridin-4-yl)methyl)-5,5-dimethyl-3-(4-((trifluoromethyl)thio)phenyl)imidazolidine-2,4-dione], the pIC50 at IGF-1R [1] and on IGF-1R [2] was ≥ 6.30 each time.

As to `CC1(C)C(=O)N(c2ccc(C3(C(F)(F)F)CC3)cc2)C(=O)N1Cc1ccnc(NC2CC2)c1` [Compound 93, 1-((2-(cyclopropylamino)pyridin-4-yl)methyl)-5,5-dimethyl-3-(4-(1-(trifluoromethyl)cyclopropyl)phenyl)imidazolidine-2,4-dione], the pIC50 on IGF-1R [1] and on IGF-1R [2] was ≥ 6.30 each time.

Turning to `CC(C)Nc1cc(CN2C(=O)N(c3ccc(C4(C)CC4)cc3)C(=O)C2(C)C)ccn1` [Compound 98, 1-((2-(isopropylamino)pyridin-4-yl)methyl)-5,5-dimethyl-3-(4-(1-methylcyclopropyl)phenyl)imidazolidine-2,4-dione], the pIC50 on IGF-1R [1] and on IGF-1R [2] was ≥ 6.30 in each case.

For the compound `C[C@@H]1COc2c(CN3C(=O)N(c4ccc(C5(C(F)(F)F)CC5)cc4)C(=O)C3(C)C)ccnc2N1` [Compound 25, (R)-5,5-dimethyl-1-((3-methyl-3,4-dihydro-2H-pyrido[3,2-b][1,4]oxazin-8-yl)methyl)-3-(4-(1-(trifluoromethyl)cyclopropyl)phenyl) imidazolidine-2,4-dione], the pIC50 on IGF-1R [1] and at IGF-1R [2] was ≥ 6.30 throughout.

As to `CC(C)Nc1cc(CN2C(=O)N(c3ccc(C(C)(C)C#N)cc3)C(=O)C2(C)C)ccn1` [Compound 125, 2-(4-(3-((2-(isopropylamino)pyridin-4-yl)methyl)-4,4-dimethyl-2,5-dioxoimidazolidin-1-yl)phenyl)-2-methylpropanenitrile], the pIC50 on IGF-1R [1] and on IGF-1R [2] was ≥ 6.30 in each case.

On to `Cn1nc(C(F)(F)F)c2ccc(N3C(=O)N(Cc4ccnc(N)c4)C(C)(C)C3=O)cc21` [Compound 255, 1-((2-aminopyridin-4-yl)methyl)-5,5-dimethyl-3-(1-methyl-3-(trifluoromethyl)-1H-indazol-6-yl)imidazolidine-2,4-dione], for which the pIC50 on IGF-1R [1] is 5.70 to 6.30; at IGF-1R [2] it was 5.00 to 5.70.
